Data from patent US11236046B2, “Substituted heterocyclic sulfonamide compounds useful as TRPA1 modulators” (Genentech, Inc., priority 2013, dated 2022).
pIC50: −log10 of the molar value.

Molecular target: human TRPA1 (Homo sapiens (Human), UniProt O75762)
Experiment: FLIPR Tetra calcium influx assay, block of cinnamaldehyde-induced calcium influx in CHO cells expressing TRPA1 (human)
Type: cell-based
Details: 20 min compound incubation, 75 uM cinnamaldehyde (~EC80), Hill coefficient fixed to 1.5, read-out: hTRPA1 AUC IC50
In short: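 CHO cells loaded with calcium dye, preincubated with compounds 20 min at room temperature in HBSS/20 mM HEPES pH 7.4 with 0.02% BSA. Channels activated by ~EC80 cinnamaldehyde (75 uM human, 45 uM rat); block of calcium influx read on FLIPR Tetra, IC50 fitted with fixed Hill coefficient.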

Chain of human TRPA1 (O75762 whole entry): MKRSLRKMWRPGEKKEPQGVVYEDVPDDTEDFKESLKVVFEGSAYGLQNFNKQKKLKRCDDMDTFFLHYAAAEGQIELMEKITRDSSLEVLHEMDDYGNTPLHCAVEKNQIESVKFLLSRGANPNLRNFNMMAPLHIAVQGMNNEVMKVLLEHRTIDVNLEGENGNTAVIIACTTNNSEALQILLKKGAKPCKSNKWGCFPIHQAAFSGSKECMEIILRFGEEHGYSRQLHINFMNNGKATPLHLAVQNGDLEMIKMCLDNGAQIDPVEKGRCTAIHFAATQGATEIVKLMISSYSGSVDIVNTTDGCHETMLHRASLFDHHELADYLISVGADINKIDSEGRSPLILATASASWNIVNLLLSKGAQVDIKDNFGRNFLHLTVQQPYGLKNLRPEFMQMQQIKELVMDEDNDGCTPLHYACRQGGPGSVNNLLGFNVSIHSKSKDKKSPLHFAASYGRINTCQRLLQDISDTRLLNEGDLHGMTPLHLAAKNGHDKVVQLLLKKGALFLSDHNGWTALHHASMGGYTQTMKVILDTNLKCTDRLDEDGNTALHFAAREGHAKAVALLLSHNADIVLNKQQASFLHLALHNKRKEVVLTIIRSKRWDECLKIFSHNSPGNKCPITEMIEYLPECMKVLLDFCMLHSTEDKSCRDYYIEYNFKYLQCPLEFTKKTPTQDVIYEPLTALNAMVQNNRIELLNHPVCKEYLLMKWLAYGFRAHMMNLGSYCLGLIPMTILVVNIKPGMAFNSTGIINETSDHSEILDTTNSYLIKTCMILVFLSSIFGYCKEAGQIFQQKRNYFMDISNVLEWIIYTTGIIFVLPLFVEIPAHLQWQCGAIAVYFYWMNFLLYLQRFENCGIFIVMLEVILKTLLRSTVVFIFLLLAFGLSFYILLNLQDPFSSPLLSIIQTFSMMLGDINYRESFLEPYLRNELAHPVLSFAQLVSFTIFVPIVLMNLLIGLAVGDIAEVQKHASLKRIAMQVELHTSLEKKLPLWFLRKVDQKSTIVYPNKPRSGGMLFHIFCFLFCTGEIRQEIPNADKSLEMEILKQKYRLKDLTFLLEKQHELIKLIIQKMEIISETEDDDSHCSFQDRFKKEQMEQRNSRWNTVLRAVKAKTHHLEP

Row | SMILES | pIC50
1 | O=C(NCc1cc(-c2ccc(C(F)(F)F)cc2)ncn1)[C@@H]1C[C@@H](F)CN1S(=O)(=O)c1ccc(F)cc1 [Example 143, (2S,4R)-4-fluoro-1-(4-fluorophenylsulfonyl)-N-((6-(4-(trifluoromethyl)phenyl)pyrimidin-4-yl)methyl)pyrrolidine-2-carboxamide] | 7.82
2 | O=C(NCc1cc(N2CCC(C(F)(F)F)CC2)c(F)cn1)[C@@H]1C[C@@H](F)CN1S(=O)(=O)c1ccc(F)cc1 [Example 144, (2S,4R)-4-fluoro-N-((5-fluoro-4-(4-(trifluoromethyl)piperidin-1-yl)pyridin-2-yl)methyl)-1-(4-fluorophenylsulfonyl)pyrrolidine-2-carboxamide] | 7.25
3 | O=C(NCc1cc(-c2ccc(OC(F)(F)F)cc2)ncn1)[C@@H]1C[C@@H](F)CN1S(=O)(=O)c1ccc(F)cc1 [Example 145, (2S,4R)-4-fluoro-1-(4-fluorophenylsulfonyl)-N-((6-(4-(trifluoromethoxy)phenyl)pyrimidin-4-yl)methyl)pyrrolidine-2-carboxamide] | 7.68
4 | O=C(NCc1cn(-c2ccc(C(F)(F)F)nc2)nc1Cl)[C@@H]1C[C@@H](F)CN1S(=O)(=O)c1ccc(F)cc1 [Example 146, (2S,4R)—N-([3-chloro-1-[6-(trifluoromethyl)pyridin-3-yl]-1H-pyrazol-4-yl]methyl)-4-fluoro-1-[(4-fluorobenzene)sulfonyl]pyrrolidine-2-carboxamide] | 7.11
5 | O=C(NCc1cc(-c2ccc(SC(F)(F)F)cc2)ncn1)[C@@H]1C[C@@H](F)CN1S(=O)(=O)c1ccc(F)cc1 [Example 147, (2S,4R)-4-fluoro-1-(4-fluorophenylsulfonyl)-N-((6-(4-(trifluoromethylthio)phenyl)pyrimidin-4-yl)methyl)pyrrolidine-2-carboxamide] | 7.31
6 | O=C(NCc1cc(C2=CCC(C(F)(F)F)CC2)ncn1)[C@@H]1C[C@@H](F)CN1S(=O)(=O)c1ccc(F)cc1 (stereo partly drawn) [Example 148, (2S,4R)-4-fluoro-1-(4-fluorophenylsulfonyl)-N-((6-(4-(trifluoromethyl)cyclohex-1-enyl)pyrimidin-4-yl)methyl)pyrrolidine-2-carboxamide] | 7.34
7 | O=C(NCc1cc(-c2ccc(C(F)(F)F)cc2)ncn1)[C@@H]1C[C@@H](F)CN1S(=O)(=O)c1ccc(F)c(F)c1 [Example 150, (2S,4R)-1-(3,4-difluorophenylsulfonyl)-4-fluoro-N-((6-(4-(trifluoromethyl)phenyl)pyrimidin-4-yl)methyl)pyrrolidine-2-carboxamide] | 7.34
8 | O=C(NCc1cn(-c2ccc(C(F)(F)F)nc2)nc1C1CC1)[C@@H]1C[C@@H](F)CN1S(=O)(=O)c1ccc(F)cc1 [Example 151, (2S,4R)—N-([3-cyclopropyl-1-[6-(trifluoromethyl)pyridin-3-yl]-1H-pyrazol-4-yl]methyl)-4-fluoro-1-[(4-fluorobenzene)sulfonyl]pyrrolidine-2-carboxamide] | 6.79
9 | Cc1nc(CNC(=O)[C@@H]2C[C@@H](F)CN2S(=O)(=O)c2ccc(F)cc2)cc(-c2ccc(C(F)(F)F)nc2)n1 [Example 152, (2S,4R)-4-fluoro-1-(4-fluorophenylsulfonyl)-N-((2-methyl-6-(6-(trifluoromethyl)pyridin-3-yl)pyrimidin-4-yl)methyl)pyrrolidine-2-carboxamide] | 6.79
10 | COc1nn(-c2ccc(C(F)(F)F)nc2)cc1CNC(=O)[C@@H]1C[C@@H](F)CN1S(=O)(=O)c1ccc(F)cc1 [Example 153, (2S,4R)-4-fluoro-1-[(4-fluorobenzene)sulfonyl]-N-([3-methoxy-1-[6-(trifluoromethyl)pyridin-3-yl]-1H-pyrazol-4-yl]methyl)pyrrolidine-2-carboxamide] | 7.17
11 | O=C(NCc1cc(-c2ccc(C(F)(F)F)nc2)ncn1)[C@@H]1C[C@@H](F)CN1S(=O)(=O)c1ccc(F)cc1 [Example 154, (2S,4R)-4-fluoro-1-(4-fluorophenylsulfonyl)-N-((6-(6-(trifluoromethyl)pyridin-3-yl)pyrimidin-4-yl)methyl)pyrrolidine-2-carboxamide] | 7.01
12 | O=C(NCc1cc(-c2ccc(C3CC3)cc2)ncn1)[C@@H]1C[C@@H](F)CN1S(=O)(=O)c1ccc(F)cc1 [Example 155, (2S,4R)—N-((6-(4-cyclopropylphenyl)pyrimidin-4-yl)methyl)-4-fluoro-1-(4-fluorophenylsulfonyl)pyrrolidine-2-carboxamide] | 6.87
13 | O=C(NCc1cc(-c2ccc(C(F)(F)F)nc2)ncn1)[C@@H]1C[C@@H](F)CN1S(=O)(=O)c1ccc(F)c(F)c1 [Example 156, (2S,4R)-1-(3,4-difluorophenylsulfonyl)-4-fluoro-N-((6-(6-(trifluoromethyl)pyridin-3-yl)pyrimidin-4-yl)methyl)pyrrolidine-2-carboxamide] | 6.96
14 | O=C(NCc1cc(-c2cnc(C(F)(F)F)nc2)ccn1)[C@@H]1[C@@H](F)CCN1S(=O)(=O)c1ccc(F)cc1 [Example 157, (2R,3S)-3-fluoro-1-(4-fluorophenyl)sulfonyl-N-[[4-[2-(trifluoromethyl)pyrimidin-5-yl]-2-pyridyl]methyl]pyrrolidine-2-carboxamide] | 6.99
15 | O=C(NCc1cc(-c2cnc(C(F)(F)F)nc2)ccc1Cl)[C@@H]1C[C@@H](F)CN1S(=O)(=O)c1ccc(F)cc1 [Example 158, (2S,4R)—N-[[2-chloro-5-[2-(trifluoromethyl)pyrimidin-5-yl]phenyl]methyl]-4-fluoro-1-(4-fluorophenyl)sulfonyl-pyrrolidine-2-carboxamide] | 8.40
16 | O=C(NCc1ccnc(-c2ccc(OC(F)(F)F)cc2)c1)[C@@H]1C[C@@H](F)CN1S(=O)(=O)c1ccc(F)cc1 [Example 159, (2S,4R)-4-fluoro-1-(4-fluorophenyl)sulfonyl-N-[[2-[4-(trifluoromethoxy)phenyl]-4-pyridyl]methyl]pyrrolidine-2-carboxamide] | 7.74
17 | O=C(NCc1ccnc(-c2ccc(OC(F)F)cc2)c1)[C@@H]1C[C@@H](F)CN1S(=O)(=O)c1ccc(F)cc1 [Example 160, (2S,4R)—N-[[2-[4-(difluoromethoxy)phenyl]-4-pyridyl]methyl]-4-fluoro-1-(4-fluorophenyl)sulfonyl-pyrrolidine-2-carboxamide] | 7.07
18 | O=C(NCc1cc(-c2ccc(C(F)(F)F)nc2)ccc1F)[C@@H]1C[C@@H](F)CN1S(=O)(=O)c1ccc(F)cc1 [Example 161, (2S,4R)-4-fluoro-N-(2-fluoro-5-(6-(trifluoromethyl)pyridin-3-yl)benzyl)-1-((4-fluorophenyl)sulfonyl)pyrrolidine-2-carboxamide] | 8.05
19 | O=C(NCc1cc(-c2ccc(C(F)(F)F)cn2)ccc1F)[C@@H]1C[C@@H](F)CN1S(=O)(=O)c1ccc(F)cc1 [Example 162, (2S,4R)-4-fluoro-N-(2-fluoro-5-(5-(trifluoromethyl)pyridin-2-yl)benzyl)-1-((4-fluorophenyl)sulfonyl)pyrrolidine-2-carboxamide] | 7.96
20 | O=C(NCc1cc(-c2ccc(C(F)(F)F)nn2)ccc1F)[C@@H]1C[C@@H](F)CN1S(=O)(=O)c1ccc(F)cc1 [Example 163, (2S,4R)-4-fluoro-N-(2-fluoro-5-(6-(trifluoromethyl)pyridazin-3-yl)benzyl)-1-((4-fluorophenyl)sulfonyl)pyrrolidine-2-carboxamide] | 7.37
21 | N#Cc1ccc(-c2cnc(C(F)(F)F)nc2)cc1CNC(=O)[C@@H]1C[C@@H](F)CN1S(=O)(=O)c1ccc(F)cc1 [Example 164, (2S,4R)—N-(2-cyano-5-(2-(trifluoromethyl)pyrimidin-5-yl)benzyl)-4-fluoro-1-((4-fluorophenyl)sulfonyl)pyrrolidine-2-carboxamide] | 7.49
22 | O=C(NCc1cc(Cl)nc(-c2ccc(OC(F)F)cc2)c1)[C@@H]1C[C@@H](F)CN1S(=O)(=O)c1ccc(F)cc1 [Example 165, (2S,4R)—N-((2-chloro-6-(4-(difluoromethoxy)phenyl)pyridin-4-yl)methyl)-4-fluoro-1-((4-fluorophenyl)sulfonyl)pyrrolidine-2-carboxamide] | 7.18
23 | N#Cc1cnc(-c2ccc(C(F)(F)F)nc2)cc1CNC(=O)[C@@H]1[C@@H](F)CCN1S(=O)(=O)c1ccc(F)cc1 [Example 166, (2R,3S)—N-([5-cyano-2-[6-(trifluoromethyl)pyridin-3-yl]pyridin-4-yl]methyl)-3-fluoro-1-[(4-fluorobenzene)sulfonyl]pyrrolidine-2-carboxamide] | 7.89
24 | O=C(NCc1cc(-c2cnc(C(F)(F)F)nc2)c(F)cn1)[C@@H]1C[C@@H](F)CN1S(=O)(=O)c1ccc(F)cc1 [Example 167, (2S,4R)-4-fluoro-N-((5-fluoro-4-(2-(trifluoromethyl)pyrimidin-5-yl)pyridin-2-yl)methyl)-1-(4-fluorophenylsulfonyl)pyrrolidine-2-carboxamide] | 7.42
25 | Cc1cnc(-c2cnc(C(F)(F)F)nc2)cc1CNC(=O)[C@@H]1C[C@@H](F)CN1S(=O)(=O)c1ccc(F)cc1 [Example 169, (2S,4R)-4-fluoro-1-[(4-fluorobenzene)sulfonyl]-N-([5-methyl-2-[2-(trifluoromethyl)pyrimidin-5-yl]pyridin-4-yl]methyl)pyrrolidine-2-carboxamide] | 6.94
26 | COCCOc1cc(-c2ccc(C(F)(F)F)nc2)cc(CNC(=O)[C@@H]2C[C@@H](F)CN2S(=O)(=O)c2ccc(F)cc2)n1 [Example 170, (2S,4R)-4-fluoro-1-(4-fluorophenylsulfonyl)-N-((6′-(2-methoxyethoxy)-6-(trifluoromethyl)-3,4′-bipyridin-2′-yl)methyl)pyrrolidine-2-carboxamide] | 7.05
27 | O=C(NCc1cc(-c2cnc(C(F)(F)F)nc2)cnc1F)[C@@H]1C[C@@H](F)CN1S(=O)(=O)c1ccc(F)cc1 [Example 171, (2S,4R)-4-fluoro-1-(4-fluorophenyl)sulfonyl-N-[[2-fluoro-5-[2-(trifluoromethyl)pyrimidin-5-yl]-3-pyridyl]methyl]pyrrolidine-2-carboxamide] | 6.68
